The values below are quoted from earlier work in US7022677B1, “Amide derivatives as growth hormone secretagogues” (Kaken Pharmaceutical Co., Ltd., priority 1999, dated 2006).

The subject of one series is growth hormone release. To be noted: control compound for pharmacophore development.
The conditions of series [1]: human, in vivo.

For `CC(C)(N)CC(=O)N[C@H]1CCc2ccccc2N(Cc2ccc(-c3ccccc3-c3nn[nH]n3)cc2)C1=O` [L-692,428], the “growth hormone releasing activity (active/inactive)” value in the series on growth hormone release is “inactive”.

GHRP-6: the oral bioavailability in series [1] is on record as 0.3%.
